Test results published in ChEMBL document CHEMBL3124796, “Suzuki coupling based synthesis and in vitro cytotoxic evaluation of 7-heteroaryl-substituted camptothecin analogs” (Bioorg Med Chem Lett, 2014).
Activity calls are given as the source filed them. The calls are words filed in the database; no cut-off is given here.

How the values were obtained:
HCT-116 [1] = test: Cytotoxicity against human HCT116 cells assessed as growth inhibition after 3 days by SRB assay; type: functional, cell-based; conditions: HCT-116, 72 h
A549 [2] = test: Cytotoxicity against human A549 cells assessed as growth inhibition after 3 days by SRB assay; type: functional, cell-based; conditions: A549, 72 h
HT-29 = test: Cytotoxicity against human HT-29 cells assessed as growth inhibition after 3 days by SRB assay; type: functional, cell-based; conditions: HT-29, 72 h
[3] = molecular target: T1, DNA topoisomerase 1 (Homo sapiens) (UniProt P11387); test: Inhibition of topoisomerase 1 (unknown origin)-mediated relaxation of supercoiled pBR322 DNA at 100 uM by agarose gel electrophoresis
T1 sequence (whole entry): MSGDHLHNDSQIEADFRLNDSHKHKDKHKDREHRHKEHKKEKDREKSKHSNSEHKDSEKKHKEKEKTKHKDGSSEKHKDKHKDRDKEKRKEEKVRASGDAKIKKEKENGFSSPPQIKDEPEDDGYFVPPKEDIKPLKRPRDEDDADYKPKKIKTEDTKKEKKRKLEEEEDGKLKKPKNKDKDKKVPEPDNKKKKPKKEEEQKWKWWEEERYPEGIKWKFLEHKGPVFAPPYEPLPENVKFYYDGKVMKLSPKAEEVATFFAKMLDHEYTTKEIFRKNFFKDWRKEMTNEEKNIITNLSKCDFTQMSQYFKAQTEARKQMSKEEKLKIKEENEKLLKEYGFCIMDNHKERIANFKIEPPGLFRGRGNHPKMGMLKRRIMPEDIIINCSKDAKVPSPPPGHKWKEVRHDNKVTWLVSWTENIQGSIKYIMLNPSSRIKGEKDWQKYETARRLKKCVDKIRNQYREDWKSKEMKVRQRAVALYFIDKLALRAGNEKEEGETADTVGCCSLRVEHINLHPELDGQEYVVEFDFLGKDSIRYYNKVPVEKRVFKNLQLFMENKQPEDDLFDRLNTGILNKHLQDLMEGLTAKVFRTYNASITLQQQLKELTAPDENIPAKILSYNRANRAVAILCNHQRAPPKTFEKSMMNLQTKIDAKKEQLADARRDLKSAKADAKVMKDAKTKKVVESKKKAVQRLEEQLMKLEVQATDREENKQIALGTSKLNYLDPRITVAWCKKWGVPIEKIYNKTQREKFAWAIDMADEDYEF

MDA-MB-231 = test: Cytotoxicity against human MDA-MB-231 cells; type: functional, cell-based
HCT-116 [4] = test: Cytotoxicity against human HCT116 cells; type: functional, cell-based
A549 [5] = test: Cytotoxicity against human A549 cells; type: functional, cell-based
[6] = molecular target: T1, DNA topoisomerase 1 (Homo sapiens); test: Inhibition of topoisomerase 1 (unknown origin)-mediated relaxation of supercoiled pBR322 DNA at 10 uM by agarose gel electrophoresis

| Structure (SMILES) | IC50 (HCT-116 [1]) | IC50 (A549 [2]) | IC50 (HT-29) | inhibition [3] | IC50 (MDA-MB-231) | IC50 (HCT-116 [4]) | IC50 (A549 [5]) | inhibition [6] |
| --- | --- | --- | --- | --- | --- | --- | --- | --- |
| CC[C@@]1(O)C(=O)OCc2c1cc1n(c2=O)Cc2c-1nc1ccccc1c2-c1ccc2cc[nH]c2c1 | 0.0835 µM | 0.0111 µM | 0.231 µM | Active |  |  |  |  |
| CC[C@@]1(O)C(=O)OCc2c1cc1n(c2=O)Cc2c-1nc1ccccc1c2-c1ccnn1C | 0.458 µM | 0.0563 µM | > 1 µM | inactive |  |  |  |  |
| CC[C@@]1(O)C(=O)OCc2c1cc1n(c2=O)Cc2c-1nc1ccccc1c2-c1ccncc1 | 0.0455 µM | 0.00633 µM | 0.0987 µM | inactive |  |  |  |  |
| CC[C@@]1(O)C(=O)OCc2c1cc1n(c2=O)Cc2c-1nc1ccccc1c2-c1cccnc1 | 0.06 µM | 0.005 µM | 0.133 µM | inactive |  |  |  |  |
| CCCCn1cc(-c2c3c(nc4ccccc24)-c2cc4c(c(=O)n2C3)COC(=O)[C@]4(O)CC)nn1 |  |  |  |  | < 0.01 µM | 0.014 µM | < 0.01 µM |  |
| CCc1c2c(nc3ccc(O)cc13)-c1cc3c(c(=O)n1C2)COC(=O)[C@]3(O)CC [7-ETHYL-10-HYDROXYCAMPTOTHECIN] | 0.031 µM | 0.00272 µM | 0.107 µM |  | 0.176 µM | 0.166 µM | 0.259 µM |  |
| CC[C@@]1(O)C(=O)OCc2c1cc1n(c2=O)Cc2c-1nc1ccccc1c2-c1cnn(C2CCCCO2)c1 (stereo partly drawn) | 0.04 µM | 0.00726 µM | 0.0907 µM | Active |  |  |  |  |
| CC[C@@]1(O)C(=O)OCc2c1cc1n(c2=O)Cc2c-1nc1ccccc1c2-c1ccc2cn[nH]c2c1 | 0.011 µM | 0.00318 µM | 0.057 µM | Active |  |  |  |  |
| CC[C@@]1(O)C(=O)OCc2c1cc1n(c2=O)Cc2c-1nc1ccccc1c2-c1cnn(C)c1 | 0.00351 µM | 0.00285 µM | 0.0218 µM | Active |  |  |  | Active |
